Key:
Format in all cases: cell-based
HIV-1 (NL4-3) = experiment: HIV-1 infection assay on Raji-CD4 and Raji-CD4-DCIR cells (p24 in supernatant); details: Raji-CD4 vs Raji-CD4-DCIR, NL4-3 2 h, culture 3 d
Protocol: FIG. 5 is a bar graph showing that specific inhibitors against the site A (A1, A4) and site B (B1, B2) decrease infectivity of Raji-CD4-DCIR. Raji-CD4 and Raji-CD4-DCIR were treated with the inhibitors selected following experiments described in FIG. 4, or DMSO. Cells were then exposed to NL4-3 for 2 h, rinsed and maintained in culture for 3d. Cell-free culture supernatants were collected and assayed for p24 content. Data shown correspond to the means±SEM from 3 independent experiments performed with triplicate samples. The asterisk (*) denotes statistically significant data (*, P<0.05, ** P<0.01, *** P<0.001).
(§1) Where indicated, 1×10^6 parental Raji-CD4 cells (DCIR-negative), Raji-CD4-DCIR or Raji-DC-SIGN transfectants were pre-treated with the indicated amount of a chemical inhibitor for 10 min. Cells were then pulsed with NL4-3 (an equivalent of 100 ng of p24) for 60 min at 37° C. The virus-cell mixture was then washed three times with PBS to remove unbound virus and re-suspended in PBS containing 1% BSA. Binding/entry was then determined by the p24 content by ELISA as above. For the infection assay, Raji-CD4 and Raji-CD4-DCIR (1×10^6 cells) were exposed to NL4-3 viral stock (100 ng of p24) for 2 h at 37° C. After three washes with PBS to remove excess virus, cells were maintained in culture for up to 9 days. Cell-free culture supernatants were collected at the indicated time points and assayed for p24 content.

HIV-1 (NL4-3/Balenv) [1] = experiment: HIV-1 binding assay on iMDDCs (p24); details: IM-MDDCs, 10 μM pre-incubation 10 min, NL4-3balenv 60 min
Protocol: (§2) FIG. 7 is bar graphs showing that selected site A and site B inhibitors decrease HIV-1 binding and infection of IM-MDDCs. Upper panel: IM-MDDCs were treated with two chemical inhibitors directed against site A (A1 and A4) and two inhibitors directed against site B (B1 and B2) (or DMSO) for 10 min at 37° C. Next, cells were pulsed with NL4-3balenv for 60 min at 37° C. and rinsed extensively before measuring p24 content. Lower panel: In some experiments, similarly treated IM-MDDCs were pulsed with NL4-3balenv for 2 h at 37° C., rinsed extensively, and maintained in complete culture medium supplemented with GM-CSF and IL-4 for up to 9 days with medium replenishment every 3 days. Cell-free culture supernatants were quantified by measuring p24 content. Data shown correspond to the means±SEM of 3 independent experiments performed in triplicate. The asterisks denotes statistically significant data (*, P<0.05; **, P<0.01; ***, P<0.001).
(§3) For assessing binding/entry, iMDDCs (3×10^5 cells in a final volume of 300 μl) were pre-treated with 10 μM of different chemical inhibitors for 10 min and exposed to NL4-3/Balenv (30 ng of p24) for 60 min at 37° C. After three washes with PBS, cells were re-suspended in PBS containing 1% BSA. The p24 content was determined by ELISA, while susceptibility of iMDDCs to HIV-1 infection was assessed by initially exposing 3×10^5 cells to NL4-3/Balenv (30 ng) at 37° C. for 2 h. After three washes with PBS, cells were maintained in complete RPMI 1640 supplemented with GM-CSF and IL-4 in 96-well plates, in a final volume of 200 μl. Every 3 days and for a 9-day period, half of the conditioned medium was collected and kept at −20° C. until assayed. Virus production was estimated as above by measuring p24 levels by ELISA.

DC-SIGN = biological target: T1, DC-SIGN (Homo sapiens, UniProt Q9NNX6); experiment: HIV-1 binding to Raji-DC-SIGN cells (p24); details: NL4-3 60 min
T1 construct: expressed in transfected cells; host or cells: Raji cells stably transfected with a DC-SIGN plasmid
T1 sequence (Q9NNX6 1-404): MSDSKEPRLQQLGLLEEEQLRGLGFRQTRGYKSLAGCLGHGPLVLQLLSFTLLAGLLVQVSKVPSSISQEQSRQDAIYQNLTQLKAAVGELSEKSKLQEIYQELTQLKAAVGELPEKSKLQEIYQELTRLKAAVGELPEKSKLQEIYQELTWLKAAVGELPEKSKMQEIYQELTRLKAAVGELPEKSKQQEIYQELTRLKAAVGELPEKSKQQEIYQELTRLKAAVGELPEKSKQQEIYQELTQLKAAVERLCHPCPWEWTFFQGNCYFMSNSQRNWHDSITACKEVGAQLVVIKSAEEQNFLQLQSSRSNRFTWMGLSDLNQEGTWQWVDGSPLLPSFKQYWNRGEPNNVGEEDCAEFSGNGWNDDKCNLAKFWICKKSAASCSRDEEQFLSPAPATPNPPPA
Protocol: Raji-DC-SIGN cells were treated for 10 min at 37° C. with inhibitors A1 and A4 directed against the site A and B1 and B2 directed against the site B, or with DMSO. Afterwards, cells were pulsed with NL4-3 for 60 min, rinsed thrice with PBS were made to remove unadsorbed virus, and cell-associated viruses were quantified by measuring p24 content. Data shown correspond to the means±SEM of 3 independent experiments performed in triplicate.
as §1

DCIR = biological target: T2, DCIR (Homo sapiens, UniProt Q9UMR7); experiment: HIV-1 binding/entry assay on Raji-CD4-DCIR cells (cell-associated p24); details: 10 μM pre-treatment 10 min; NL4-3 60 min; p24 content
T2 construct: expressed in transfected cells; host or cells: Raji-CD4 (human B cell line stably expressing human CD4), retroviral transduction
T2 sequence (Q9UMR7 1-237): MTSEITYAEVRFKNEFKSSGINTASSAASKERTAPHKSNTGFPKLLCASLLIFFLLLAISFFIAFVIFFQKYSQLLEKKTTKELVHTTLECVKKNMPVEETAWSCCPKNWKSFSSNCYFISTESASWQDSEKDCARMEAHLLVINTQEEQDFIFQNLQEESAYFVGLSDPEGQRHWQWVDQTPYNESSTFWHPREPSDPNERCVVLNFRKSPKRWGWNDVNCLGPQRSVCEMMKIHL
Protocol: FIG. 4 is a bar graph showing that inhibitors decrease HIV-1 binding on DCIR. Raji-CD4-DCIR cells were treated with 10 μM of four site A inhibitors (A1, A2, A3 and A4) and three site B inhibitors (B1, B2 and B3) (or with vehicle (DMSO) only) for 10 min at 37° C. Thereafter, cells were pulsed with NL4-3 for 60 min. After three washes with PBS to remove unadsorbed virus, the abundance of cell-associated viruses was quantified by measuring p24 content. Data shown correspond to the means±SEM of three independent experiments performed with triplicate samples. The asterisk (*) denotes statistically significant data (*, P<0.05, ** P<0.01, *** P<0.001).
as §1

HIV-1 (NL4-3/Balenv) [2] = experiment: HIV-1 infection assay on iMDDCs (p24 in supernatant); details: IM-MDDCs, NL4-3balenv 2 h, culture up to 9 days
Protocol: as §2, §3

Structure (SMILES): c1ccc(-c2ccc(-c3ccccn3)nn2)nc1 [Compound A4, 3,6-di-2 pyridinylpyridazine]
- HIV-1 production (HIV-1 (NL4-3)): decreased HIV-1 production only in DCIR-expressing cells
- HIV-1 binding to DCs (HIV-1 (NL4-3/Balenv) [1]): decreased significantly
- HIV-1 binding to DC-SIGN (DC-SIGN): do not block HIV-1 attachment to DC-SIGN
- HIV-1 attachment to Raji-CD4-DCIR cells (DCIR): statistically significant decrease
- productive infection of DCs (HIV-1 (NL4-3/Balenv) [2]): blocked productive infection

Source: US9731001B2, “Three-dimensional cavities of dendritic cell immunoreceptor (DCIR), compounds binding thereto and therapeutic applications related to inhibition of human immunodeficiency virus type-1 (HIV-1)” (priority 2011, dated 2017)
